Data set [1] deals with 4T1 breast cancer. The method, then:
• 1) 4T1 cell culture solution: DMEM basal medium, 1 penicillin streptomycin double antibody, 10% fetal bovine serum; • 2) 4% paraformaldehyde solution: with PBS (0.01 M) of pH 7.4 as the solvent, weighing 40 g of paraformaldehyde and placing into 800 mL of PBS solution, shaking and dissolving in a constant temperature shaker at 60° C. overnight; after the solid of paraformaldehyde is completely dissolved, stopping heating, balancing to room temperature, and adding PBS again to dilute the volume to 1 L; • 3) 1% sodium pentobarbital anesthetic: weighing 100 mg pentobarbital sodium, adding into 10 mL ultrapure water, and vortexing until it is fully dissolved. II. Experimental Method 1. Establishment of Orthotopic Inoculation Model for 4T1 Breast Cancer 1.1 Preparation of 4T1 Cell Suspension • 1) Taking a T-75 culture flask containing 4T1 cells, using a pipette to suck out the cell culture solution in the culture flask, and adding 5 mL of DPBS to rinse for 1-2 times to remove the residual culture solution; • 2) adding 2 mL of 0.25% trypsin, shaking the culture flask back and forth, so that the trypsin uniformly covers the bottom surface of the culture flask, and incubating in a constant temperature incubator containing 5% CO2 at 37° C. for 3 min; • 3) adding 10 mL serum-free cell culture medium, diluting trypsin and stop digestion; • 4) using a pipette to blow and beat the cell suspension to evenly disperse it to obtain a single cell suspension, taking 5 μL of cell suspension and adding placental blue dye solution with the same volume, and using an Invitrogen life countess cell counter to count the cells of cell suspension; • 5) centrifuging at 4° C. and 800 g for 5 min, discarding the supernatant, adding an appropriate amount of serum-free cell culture medium according to the intracellular concentration calculated previously, gently blowing and beating the cell block with a pipette to fully disperse it to prepare a single cell suspension, and the final concentration of cell suspension is: 1.6×10^7/mL; • 6) dispensing the 4T1 cell suspension into sterile 2 mL centrifuge tubes and storing at 4° C. until use. 1.2 BALB/c Female Mice Inoculated Orthotopically with 4T1 Cells • 1) On the day before inoculation, removing the hair on the right side of the abdomen of the mice to prepare the skin for the next day surgery; • 2) the next day, injecting the skin-prepared mice intraperitoneally with 1% pentobarbital anesthetic 100 μL; • 3)after complete anesthesia, fixing the limbs, wetting the right side of the abdomen with normal saline, and then using a scalpel to make a light incision on the abdomen; • 4) using tweezers to clamp out the 4th mammary fat pad located at the root of right thigh, and injecting 50 μL of 4T1 single cell suspension prepared above; • 5) loosening the tweezers, positioning the fat pad, and then suturing the abdominal wound; • 6) at the end of inoculation, returning the mice to their cages and the front leg of each mouse was taped with a label tape. 2. Animal Grouping and Dosing Regimen • 1) four days after inoculation, tumor volume was determined using vernier calipers: the longest and shortest diameters (L, W) of the tumor were measured every other day, and the tumor volume was calculated according to the following formula:
[formula] • 2) after the tumor volume grew to 80 mm^3, it was evenly divided into the following 5 experimental groups according to the size of tumor volume: • (1) Saline group (Saline) • (2) Blank nanobowls@liposomes group (NB@LP) • (3) Doxorubicin hydrochloride group (Dox) • (4) Common Dox-liposome group (DLP) • (5) Nanobowls@Dox-liposome group (NB@DLP) • 3) On the 8th, 11th and 14th day after inoculation, the corresponding drugs were intravenously injected into the tail vein of each experimental group, and the corresponding drugs were administered to each group at a dose of 4 mg/kg of doxorubicin. 3.

Data set [2] relates to 4T1 breast cancer cells. As to the kind of experiment: Cell viability by CCK-8 method. The format is cell-based, mouse. Conditions: 4T1 cells, doxorubicin 0.01-10.00 μg/mL, 48 h. The procedure: [formula] • 5) collecting the nanobowls@Dox-liposomes at each time point by centrifugation (24000 g, 15 min) and determining the particle size and potential by DLS after redispersion. 1.2. […] Incubating the culture plate in a 37° C., 5% CO2 constant temperature cell incubator for 12 h; 2) preparing different nanoparticle structures in a serum-free culture medium with a drug concentration gradient to prepare a culture medium containing different concentrations of liquid medicine, sucking out the old culture medium in the culture plate, and then adding 200 μL of a new culture medium containing the liquid medicine to each well; • 3) placing the 96-well plate containing cells in a 37° C., 5% CO2 constant temperature cell incubator for culture for appropriate time; • 4) diluting CCK-8 liquid with serum-free culture medium by a factor of 10 according to 1:10, sucking out the old culture medium in the culture plate, and adding 100 μL culture medium containing CCK-8 into each well; • 5) incubating the culture plate in a 37° C., 5% CO2 constant temperature cell incubator for 0.5-1 h; • 6) determining the absorbance of each well with a microplate reader at a wavelength of 450 nm. […]
A general note: Tetrazolium assays rely on reduction of a dye to a coloured formazan, in cell work by metabolically active cells.

For data set [3], the system named is important organs of tumor-bearing mice. Conditions: mouse, in vivo. An excerpt: (§1) [formula] • 2) after the tumor volume grew to 80 mm^3, it was evenly divided into the following 5 experimental groups according to the size of tumor volume: • (1) Saline group (Saline) • (2) Blank nanobowls@liposomes group (NB@LP) • (3) Doxorubicin hydrochloride group (Dox) • (4) Common Dox-liposome group (DLP) • (5) Nanobowls@Dox-liposome group (NB@DLP) • 3) On the 8th, 11th and 14th day after inoculation, the corresponding drugs were intravenously injected into the tail vein of each experimental group, and the corresponding drugs were administered to each group at a dose of 4 mg/kg of doxorubicin. 3. Monitoring of Mouse Body Weight and Tumor Volume • 1) determining body weight and tumor length and diameter every 2 days after the first dose of group, calculating tumor volume, and recording and summarizing all results; • 2) using GraphPad Prism 7.0 medical mapping software for data induction, statistical analysis, and making charts. 4. Immunohistochemical Staining of Tissue Sections • 1) after the last intravenous administration, selecting several mice in each experimental group, after sacrifice, dissecting and removing tumor tissues and important organs of mice, and fully immersing in 4% paraformaldehyde solution for fixation; • 2) during fixation, replacing fresh 4% paraformaldehyde solution several times to wash out residual blood. […]

Data set [4] relates to 4T1 tumor tissue. As to the kind of experiment: TUNEL and PCNA immunohistochemical staining of tumor tissue of 4T1 tumor-bearing mice. The format is in vivo, mouse. Conditions: tumor tissue after treatment.
Excerpt: as §1

Each structure is given as a SMILES string. Structures can show the parent of a compound that is named as a salt.

Turning to `COc1cccc2c1C(=O)c1c(O)c3c(c(O)c1C2=O)C[C@@](O)(C(=O)CO)C[C@@H]3O[C@H]1C[C@H](N)[C@H](O)[C@H](C)O1` [Dox, doxorubicin hydrochloride], the tumor volume growth result in data set [1] (4 mg/kg doxorubicin i.v. tail vein, days 0, 3 and 6) was “could not achieve the expected treatment of tumor”. The median survival time in data set [1] (4T1 breast cancer mice) worked out at 27 days. The “Median survival” value in data set [1] (4T1 breast cancer mice, 4 mg/kg doxorubicin i.v. x3) stood at 27 days. In addition, in data set [1] (median survival versus saline), the “Prolong duration” value was 3 days. The “Prolonged rate (%)” value in data set [1] (median survival versus saline control) came out at 12.50%. Also, the “body weight of mice during administration” value in data set [1] (mouse, in vivo) is reported as “significant decrease”. Moreover, the “prolongation of median survival time compared with the control group” value in data set [1] (versus saline control) is on record as 3 days. Besides, the “effect on cell viability” value in data set [2] is “significantly stronger than that of common Dox-liposomes and nanobowls@Dox-liposomes”. The “toxicity to the heart (pathological sections)” value in data set [3] is “more toxic to the heart, leading to the lysis and rupture of cardiomyocytes”. Besides, the “effect of promoting tumor cell apoptosis (TUNEL) and inhibiting proliferation (PCNA)” value in data set [4] was “worst effect”.

For the origin of these results see patent US12551438B2, “Nanobowl-supported drug-loaded liposome, preparation method therefor and application thereof” (priority 2020, dated 2026).
